Consider 33 compounds from ChEMBL document CHEMBL5576049, “Synthesis and cytotoxicity of novel 6,8,9-trisubstituted purine analogs against liver cancer cells” (Bioorg Med Chem Lett, 2024).

Active and inactive are the calls of the source. No cut-off for these calls is given here. Where only a bound is given, the exact number is not on record here.

Holding throughout (assay type): functional, cell-based
Experiment [1] relates to Huh-7. As to the kind of experiment: Cytotoxicity against human Huh-7 cells assessed as cell growth inhibition incubated for 72 hrs by SRB assay. Particulars: for IC50: Huh-7, 72 h.
Experiment [2] relates to HCT-116. As to the kind of experiment: Cytotoxicity against human HCT-116 cells assessed as cell growth inhibition incubated for 72 hrs by SRB assay. Particulars: for IC50: HCT-116, 72 h. Background: The SRB assay estimates cell density from bound dye.
For experiment [3], the system named is MCF7. In words: Cytotoxicity against human MCF7 cells assessed as cell growth inhibition incubated for 72 hrs by SRB assay. Particulars: for IC50: MCF7, 72 h.
For experiment [4], the system named is Hep 3B2. As to the kind of experiment: Cytotoxicity against human Hep3B cells assessed as cell growth inhibition incubated for 72 hrs by SRB assay.
Experiment [5] concerns HepG2. As to the kind of experiment: Cytotoxicity against human HepG2 cells assessed as cell growth inhibition incubated for 72 hrs by SRB assay. Particulars: HepG2, 72 h.
Experiment [6] deals with PLC. In words: Cytotoxicity against human PLC cells assessed as cell growth inhibition incubated for 72 hrs by SRB assay.
Experiment [7] concerns Mahlavu. As to the kind of experiment: Cytotoxicity against human Mahlavu cells assessed as cell growth inhibition incubated for 72 hrs by SRB assay.
Experiment [8] in a line: Cytotoxicity against human FOCUS cells assessed as cell growth inhibition incubated for 72 hrs by SRB assay.
Experiment [9] has as its system SNU-475. In words: Cytotoxicity against human SNU-475 cells assessed as cell growth inhibition by SRB assay.
Experiment [10] has as its system SNU-182. As to the kind of experiment: Cytotoxicity against human SNU-182 cells assessed as cell growth inhibition incubated for 72 hrs by SRB assay. The following applies: SNU-182, 72 h.
Experiment [11] has as its system SNU-387. In words: Cytotoxicity against human SNU-387 cells assessed as cell growth inhibition incubated for 72 hrs by SRB assay. The following applies: SNU-387, 72 h.
Experiment [12] relates to SNU-398. In words: Cytotoxicity against human SNU-398 cells assessed as cell growth inhibition incubated for 72 hrs by SRB assay. Particulars: SNU-398, 72 h.
Experiment [13] has as its system SNU-423. In words: Cytotoxicity against human SNU-423 cells assessed as cell growth inhibition incubated for 72 hrs by SRB assay. Particulars: SNU-423, 72 h.
The subject of experiment [14] is SNU-449. As to the kind of experiment: Cytotoxicity against human SNU-449 cells assessed as cell growth inhibition incubated for 72 hrs by SRB assay. Particulars: SNU-449, 72 h.

Broadly, the IC50 is the point on the concentration scale where inhibition reaches its midpoint. Turning to `Brc1ccc(-c2nc3c(N4CCN(c5ccccc5)CC4)ncnc3n2C2CCCC2)cc1`, the IC50 in [1] came to 11.1 µM; in experiment [2], 28.8 µM; in [3], 15 µM.
For the compound `FC(F)(F)c1ccc(N2CCN(c3ncnc4c3nc(-c3ccc(Br)cc3)n4C3CCCC3)CC2)cc1`, the IC50 was 58.1 µM in experiment [1], 58.5 µM in experiment [2] and 17.4 µM in experiment [3].
As for `FC(F)(F)c1ccc(-c2nc3c(N4CCN(c5ccccc5)CC4)ncnc3n2C2CCCC2)cc1`, the IC50 in experiment [1] worked out at 7.6 µM; in experiment [2] it was 25.3 µM; in [3], 25.9 µM.
On to `Nc1nc(F)nc2c1ncn2[C@@H]1O[C@H](CO)[C@@H](O)[C@@H]1O` [FLUDARABINE], for which the IC50 in experiment [1] amounted to 28.4 µM.
Consider `Cc1ccc(-c2nc3c(N4CCN(c5ccc(C(F)(F)F)cc5)CC4)ncnc3n2C2CCCC2)cc1`, for which the results for the IC50 in experiment [1], in [2] and in experiment [3] were 13.1 µM, 34.3 µM and 26.2 µM, respectively.
As for `Clc1ccc(-c2nc3c(N4CCN(c5ccccc5)CC4)ncnc3n2C2CCCC2)cc1`, the figures for the IC50 in experiment [1], in experiment [2] and in [3] were 23.2 µM, 5.8 µM and 19.8 µM, respectively.
For `Cc1ccc(N2CCN(c3ncnc4c3nc(-c3ccc(Cl)cc3)n4C3CCCC3)CC2)cc1` the same measures were 15.7 µM, 6.5 µM and 21.6 µM.
`COc1ccc(-c2nc3c(N4CCN(c5ccc(Cl)cc5)CC4)ncnc3n2C2CCCC2)cc1`: the IC50 is 5.5 µM in experiment [1], 30.9 µM in experiment [2] and 69.8 µM in experiment [3].
For `Clc1ccc(N2CCN(c3ncnc4c3nc(-c3ccc(Br)cc3)n4C3CCCC3)CC2)cc1Cl`, the result in [1] and in [2] was inactive. Besides, the IC50 in experiment [3] came out at 60.7 µM.
Take `Clc1ccc(N2CCN(c3ncnc4c3nc(-c3ccc(Br)cc3)n4C3CCCC3)CC2)cc1`: the outcome in experiment [1] and in [2] was inactive. The IC50 in experiment [3] is 51.6 µM.
In the case of `Clc1ccc(-c2nc3c(N4CCN(c5ccc(Cl)cc5)CC4)ncnc3n2C2CCCC2)cc1`, the figures for the IC50 in experiment [1], in experiment [2] and in [3] were 39 µM, 64.9 µM and 35.8 µM, respectively.
As to `FC(F)(F)c1ccc(-c2nc3c(N4CCN(c5ccc(Cl)cc5)CC4)ncnc3n2C2CCCC2)cc1`, the IC50 in experiment [1] came out at 61.4 µM; in [3], 57.9 µM. In addition, in experiment [2], the outcome was inactive.
In the same order, the values of `FC(F)(F)c1ccc(-c2nc3c(N4CCN(c5ccc(Cl)c(Cl)c5)CC4)ncnc3n2C2CCCC2)cc1` are 35.1 µM, 7.2 µM and “inactive”.
As for `COc1ccc(-c2nc3c(N4CCN(c5ccc(Cl)c(Cl)c5)CC4)ncnc3n2C2CCCC2)cc1`, the values for the IC50 in experiment [1], in experiment [2] and in [3] were 7.4 µM, 33.6 µM and 30.6 µM, respectively.
With `Fc1ccc(-c2nc3c(N4CCN(c5ccc(Cl)cc5)CC4)ncnc3n2C2CCCC2)cc1`, the figures for the IC50 in experiment [1] and in [2] were 20.2 µM and 51.4 µM, respectively. Further, the result in experiment [3] was inactive.
For `Cc1ccc(N2CCN(c3ncnc4c3nc(-c3ccc(F)cc3)n4C3CCCC3)CC2)cc1` the same measures were 20.8 µM, 26.1 µM and “inactive”.
For the compound `Fc1ccc(-c2nc3c(N4CCN(c5ccccc5)CC4)ncnc3n2C2CCCC2)cc1`, the results for the IC50 in [1], in experiment [2] and in experiment [3] were 11.4 µM, 13.7 µM and 68.2 µM, respectively.
For `Cc1ccc(-c2nc3c(N4CCN(c5ccccc5)CC4)ncnc3n2C2CCCC2)cc1` the same measures were 12.9 µM, 18.8 µM and 21.4 µM.
Take `O=c1[nH]cc(F)c(=O)[nH]1` [FLUOROURACIL]: the IC50 in experiment [2] is 4.1 µM.
Take `Clc1ccc(-c2nc3c(N4CCN(c5ccc(Cl)c(Cl)c5)CC4)ncnc3n2C2CCCC2)cc1`: in [1], the IC50 was 58.7 µM. Besides, the result in experiment [2] and in [3] was inactive.
As to `COc1ccc(-c2nc3c(N4CCN(c5ccc(C(F)(F)F)cc5)CC4)ncnc3n2C2CCCC2)cc1`, the IC50 in experiment [1] came to 9.8 µM. In addition, the outcome in [2] and in experiment [3] was inactive.
`Fc1ccc(-c2nc3c(N4CCN(c5ccc(C(F)(F)F)cc5)CC4)ncnc3n2C2CCCC2)cc1`: the IC50 in [1] came to 11.4 µM; in experiment [2], 13.5 µM; in experiment [3] it was 32.4 µM.
For `Cc1ccc(-c2nc3c(N4CCN(c5ccc(C)cc5)CC4)ncnc3n2C2CCCC2)cc1` the same measures were 17.4 µM, 33.4 µM and 47.5 µM.
For `Cc1ccc(N2CCN(c3ncnc4c3nc(-c3ccc(Br)cc3)n4C3CCCC3)CC2)cc1` the same measures were 28.4 µM, 52.3 µM and 24.8 µM.
As for `COc1ccc(-c2nc3c(N4CCN(c5ccc(C)cc5)CC4)ncnc3n2C2CCCC2)cc1`, the result in [1] and in experiment [2] was inactive. In experiment [3], the IC50 was 58.4 µM.
`FC(F)(F)c1ccc(N2CCN(c3ncnc4c3nc(-c3ccc(Cl)cc3)n4C3CCCC3)CC2)cc1`: the results for the IC50 in experiment [1] and in [3] were 19.4 µM and 30.3 µM, respectively. For the same compound, the outcome in experiment [2] was inactive.
As for `FC(F)(F)c1ccc(-c2nc3c(N4CCN(c5ccc(C(F)(F)F)cc5)CC4)ncnc3n2C2CCCC2)cc1`, the IC50 in experiment [1] came to 9.3 µM; in [2], 10.8 µM; in experiment [3], 6.1 µM; in [4], 10.3 µM; in [5], 6.6 µM; in experiment [6], 99.1 µM. Moreover, the IC50 in experiment [7] came out at 19.8 µM; in experiment [8] it was 4.5 µM; in experiment [9], 17 µM; in [10], 16.4 µM; in experiment [11], 98.7 µM; in experiment [12], 19 µM. Further, the figures for the IC50 in [13] and in experiment [14] were 24.9 µM and 60.6 µM, respectively.
On to `COc1ccc(-c2nc3c(N4CCN(c5ccccc5)CC4)ncnc3n2C2CCCC2)cc1`, for which the IC50 was 57.1 µM in [1] and 42.3 µM in experiment [2]. Further, the outcome in experiment [3] was inactive.
In the same order, the values of `Fc1ccc(-c2nc3c(N4CCN(c5ccc(Cl)c(Cl)c5)CC4)ncnc3n2C2CCCC2)cc1` are 30 µM, 50.6 µM and “inactive”.
On to `Cc1ccc(N2CCN(c3ncnc4c3nc(-c3ccc(C(F)(F)F)cc3)n4C3CCCC3)CC2)cc1`, for which the IC50 in [1] amounted to 16.1 µM; in experiment [2] it was 46.2 µM; in experiment [3], 30.1 µM.
As to `Nc1nc(Cl)nc2c1ncn2[C@H]1C[C@H](O)[C@@H](CO)O1` [CLADRIBINE], the IC50 in experiment [1] is 0.9 µM; in [2], under 0.1 µM; in experiment [3], 2.4 µM; in experiment [7], under 0.1 µM; in experiment [8] it was under 0.1 µM; in [12], under 0.1 µM.
As to `Cc1ccc(-c2nc3c(N4CCN(c5ccc(Cl)cc5)CC4)ncnc3n2C2CCCC2)cc1`, in [1], the IC50 is 61.8 µM. Also, the outcome in experiment [2] and in experiment [3] was inactive.
On to `Cc1ccc(-c2nc3c(N4CCN(c5ccc(Cl)c(Cl)c5)CC4)ncnc3n2C2CCCC2)cc1`, for which the result in experiment [1], in experiment [2] and in [3] was inactive.
